Test results taken from article PMC11580889 (bioRxiv, 2025).

Biological target: PNKP (polynucleotide kinase 3'-phosphatase); purified recombinant PNKP (Homo sapiens, UniProt Q96T60)
Test: intrinsic tryptophan fluorescence quenching titration
Format: binding

Kd: 525 ± 25 nM
Compound: O=P(O)(O)OC[C@H]1O[C@@](CO)(OP(=O)(O)O)[C@@H](O)[C@@H]1O [F2,6BP]
